According to publication PMC12474757, “Paving the way for future PSMA inhibitors: insights from comparative preclinical evaluations of structure modifications” (EJNMMI Radiopharmacy and Chemistry, 2025):

Experiments:
[1] = Octanol/water partition coefficient (log P); format: physicochemical; conditions: octanol/PBS; mean ± SD n = 6
Procedure: Octanol/water partition coefficient (P) was determined as described before (Petrik et al. [2012]). Briefly, 600 µL PBS was added to the total volume of the ⁶⁸Ga-P15. New tube was filled with 50 µL of the above-mentioned solution, 500 µL octanol and 450 µL PBS. Five more samples were prepared in this way and then placed on an orbital shaker for 20 min. The samples were then centrifuged at 15,000 rpm for 1 min. After centrifugation, two samples were taken from each tube, one from the octanol and the other from the aqueous phase. The radioactivity of these samples was measured using an automated gamma computer and the formula log P = log(Aoctanol/AH2O) was employed to calculate log P. The same procedure was applied when determining the partition coefficient of ⁶⁸Ga-P16, ⁶⁸Ga-P19, and ⁶⁸Ga-PSMA-617.

[2] = Stability in human plasma/serum (radiochemical purity by HPLC); format: in vitro ADME; conditions: for Stability in human serum (%): radiochemical purity, 37 °C, n = 1
Procedure: (§1) Quality control, i.e. radiochemical purity, of the ^68Ga-labelled PSMA inhibitors was evaluated by analytical high performance liquid chromatography (HPLC; Dionex UltiMate 3000, Thermo Scientific, Waltham, Massachusetts, USA) using the following equipment: ACE 3 C18 column; 150 × 3 mm, 3 μm (Advanced Chromatography Technologies Ltd, Aberdeen, UK), with gradient elution A: H2O/acetonitrile (ACN); B:0.1% trifluoroacetic acid (TFA)/H2O: 0–3 min, 0% ACN; 3–10 min, 0 − 50% ACN; 10–13 min, 50 − 80% ACN; 13–15 min, 80–0% ACN, for 15 min at a flow rate of 1 mL/min. Radiometric detection was performed using a GABI Star radiodetector (Raytest GmbH, Straubenhardt, Germany) and for chromatogram quantification Chromatography Data System (CDS) - Chromeleon software (Thermo Scientific, USA) was used. The actual sample injection was performed using a Hamilton microinjector (Hamilton, USA).
Plasma stability was determined as follows. To 100 µL of ⁶⁸Ga-P15 with radioactivity of 45 kBq/100 µL, 400 µL of human plasma was added and mixed. The mixture was incubated at 37 °C and 100 µL samples were taken at 30, 60 and 120 min. These samples were then mixed with 200 µL of acetonitrile and placed on a shaker for 1 min. The sample was then centrifuged at 15,000 rpm for 3 min. After centrifugation, the supernatant was collected for radiochemical purity analysis by HPLC. The same procedure was applied when determining plasma stability of ⁶⁸Ga-P16, ⁶⁸Ga-P19, and ⁶⁸Ga-PSMA-617.

[3] = Radiochemical stability in physiological pH water environment; format: physicochemical; conditions: radiochemical purity, pH 7, 37 °C, n = 1
Procedure: as §1
Radiochemical stability in a physiological pH water environment was determined as follows: 100 µL of acetate buffer (1.1 mol/L) was added to the labelled preparation and the pH was then checked with a pH indicator paper to be 7. The mixture was further incubated at 37 °C and after 30, 60 and 120 min, 10 µL aliquot was used for HPLC analysis of radiochemical purity.

[4] = test system: LNCaP tumour-bearing mice; experiment: Ex vivo biodistribution in LNCaP tumour-bearing mice; design: species or system SCID mice
Procedure: The eight-week-old male SCID mice (Charles River, Massachusetts, USA) were used to generate the mouse tumour model. The implantation of 10 million LNCaP cells (ATCC, Virginia, USA) per mouse in a 1:1 mixture of Matrigel matrix (Corning, New York, USA) was performed subcutaneously behind the right shoulder of the mouse. Tumours of adequate size, representing a volume of 100–300 mm³, were observed after five to six weeks.
Ex vivo biodistribution of PSMA inhibitors in tumor-bearing mice was conducted as follows. Concisely, 30 µL of acetate buffer was added to the each ⁶⁸Ga -labelled inhibitor, namely: ⁶⁸Ga-P15, ⁶⁸Ga-P16, ⁶⁸Ga-P19, and ⁶⁸Ga-PSMA-617 to achieve physiological pH. Mice were r.o. injected with 100 µL of labelled inhibitor (2 MBq, approximately 0.5 µg of the inhibitor). Animals were divided into two groups for biodistribution studies at 1 and 2 h after administration of the respective ^68Ga-labelled PSMA inhibitor. The animals were sacrificed and autopsied after euthanasia, and organs: spleen, pancreas, stomach, intestine, kidney, liver, heart, lung, muscle, bone, and tumour were collected in scintillation vials. The vials containing the samples were weighed and measured in a Wizard2 gamma counter (PerkinElmer, USA). The measured values were then adjusted for radionuclide decay and expressed as a percentage of administered dose per gram of organ (%ID/g). The NanoScan® hybrid Positron Emission Tomography/Computed Tomography (PET/CT) machine (Mediso, Budapest, Hungary) was used for in vivo imaging specifically whole-body helical PET/CT scans. Imaging settings were: single field of view (FOV) PET scans (98.5 mm) which took 10 min for each mouse and helical CT scans (50 kVp/980 µA, 720 projections) both took place one hour after the administration. Each mouse received an injection of approximately 10 MBq of tested radiopharmaceutical. To prevent the mice’s eyes from drying out during anaesthesia eye ointment (Ophthalmo-Azulen, Zentiva, CR) was applied. Image reconstruction was performed using Mediso Tera-Tomo 3D PET iterative reconstruction (Mediso Medical Imaging Systems, Budapest, Hungary). Both reconstruction and data evaluation were performed in Mediso InterView FUSION software (Mediso Medical Imaging Systems, Budapest, Hungary) (Mediso, Budapest, Hungary). Final images were normalised to injected activity and animal weight. All organs with radiopharmaceutical accumulation were roughly delineated on the images, while their SUVmax value was recorded. The SUV41% (Standardized Uptake Value 41%) was then calculated as 41% of each SUVmax value of given hotspot and the ROI was delineated based on this value (Boellaard et al. [2015]). All images were exported in maximum intensity projection (MIP) mode. The results from the ex vivo biodistribution study were subjected to statistical analysis, namely unpaired Student’s t-test (Microsoft Excel 365, USA).

[5] = one-hour p.i., mean ± SD, n = 4

Structure (SMILES)	Log P [1]	Stability in human serum (%) ([2]; incubation time 30 min)	Stability in human serum (%) ([2]; incubation time 60 min)	Stability in human serum (%) ([2]; incubation time 120 min)	Stability in Physiological pH (%) ([3]; incubation time 0 min)	Stability in Physiological pH (%) ([3]; incubation time 30 min)	Stability in Physiological pH (%) ([3]; incubation time 60 min)	Stability in Physiological pH (%) ([3]; incubation time 120 min)	tumour-to-muscle ratio of [68Ga]Ga-PSMA-617 relative to that of the inhibitor ([4]; one-hour p.i.)	Accumulation in the tumour ([4]; two-hours p.i., n = 4)	further results
O=C([O-])CN1CCN(CC(=O)[O-])CCN(CC(=O)NCc2ccc(C(=O)N[C@H](C(=O)NCCCC[C@H](NC(=O)N[C@@H](CCC(=O)O)C(=O)O)C(=O)O)C(c3ccccc3)c3ccccc3)cc2)CCN(CC(=O)[O-])CC1.[68Ga+3] [[^68Ga]Ga-P19]	–3,41 ± 0,13	99.3	99.8	99.9	99.8	99.5	99.5	99.6	more than 1.6 times	2.0 % ID/g	tumour-to-blood ratio, times higher than [68Ga]Ga-PSMA-617 ([4]; one hour after administration): more than 1.5 times; level in the kidney, times lower compared to [68Ga]Ga-PSMA-617 ([4]; one hour after administration, p < 0.05): up to 7 times; tumour-to-blood ratio [4, 5]: 9.0 ± 2.3; tumour-to-kidney ratio [4, 5]: 0.85 ± 0.36; Accumulation in the tumour ([4]; one-hour p.i., n = 4): 3.5 % ID/g; tumour-to-kidney ratio ([4]; two hours post injection, mean ± SD, n = 4): 0.85 ± 0.02
O=C([O-])CN1CCN(CC(=O)[O-])CCN(CC(=O)N[C@H]2CC[C@H](NC(=O)[C@@H](Cc3ccc4ccccc4c3)NC(=O)CC[C@H](NC(=O)N[C@@H](CCC(=O)O)C(=O)O)C(=O)O)CC2)CCN(CC(=O)[O-])CC1.[68Ga+3] [[^68Ga]Ga-P15]	–3,71 ± 0,14	98.9	99.8	99.4	99.0	98.8	98.7	99.2	~7.5 times	0.5%	tumour-to-muscle ratio, fold lower than [68Ga]Ga-PSMA-617 ([4]; Fig. 5): more than 7 fold; tumour uptake, fold lower than [68Ga]Ga-P16 ([4]; one-hour p.i.): more than 5 fold; tumour uptake, fold lower than [68Ga]Ga-P16 ([4]; two-hours p.i.): up to 10 fold
O=C([O-])CN1CCN(CC(=O)[O-])CCN(CC(=O)N[C@H]2CC[C@H](NC(=O)[C@H](Cc3ccc4ccccc4c3)NC(=O)CC[C@H](NC(=O)N[C@@H](CCC(=O)O)C(=O)O)C(=O)O)CC2)CCN(CC(=O)[O-])CC1.[68Ga+3] [[^68Ga]Ga-P16]	–3,07 ± 0,87	98.8	98.3	97.3	99.3	99.1	99.3	99.3	more than twice		Radiochemical purity in human blood serum/plasma ([2]; 37 °C, 30, 60 and 120 min): above 97%; Accumulation in the spleen ([4]; one-hour p.i., n = 4): 7.7 % ID/g; Accumulation in the spleen ([4]; two-hours p.i., n = 4): 9.6 % ID/g
